In paper PMC8153121, “N-Alkylation of Anthracycline Antibiotics by Natural Sesquiterpene Lactones as a Way to Obtain Antitumor Agents with Reduced Side Effects” (Biomedicines, 2021):
Like-named read-outs stand apart in the source and are kept apart here.

Columns and labels:
[1] = molecular target: T1, cytochrome-c-oxidase complex of the mitochondrial respiratory chain (IV) (Rattus norvegicus, UniProt P00406+P05503+P05505); assay: Respiratory chain complex IV, OCR of isolated rat heart mitochondria (Seahorse); type: biochemical; settings: isolated rat heart mitochondria 10 μg/well, compounds at 30 μM
T1 construct: Rat heart mitochondria were isolated by differential centrifugation; from tissue; host or cells: rat heart mitochondria
Description: (§1) Rat heart mitochondria were isolated by differential centrifugation using ice-cold buffer containing KCl (120 mM) and HEPES (20 mM), pH = 7.4, and a trypsin inhibitor. The mitochondrial yield ranged from 5 to 10 mg/mL of protein in the heart sediment. Mitochondria were stored in plastic containers at 4 °C.
(§2) The effect of the compounds on the functioning of the electron transport chain complexes was carried out using an Agilent Seahorse XF96e Analyzer (Seahorse Bioscience, Billerica, MA, USA) according to their ability to change the rate of oxygen uptake by isolated rat heart mitochondria (10 μg/well). The following modulators were used: activators of complex I of the electron transport chain, NADH dehydrogenase,—glutamate/malate; rotenone (2 μM) (Sigma Aldrich, Saint Louis, USA)—a tissue respiration blocker that stops the transfer of electrons from the reduced form of NADH to cytochrome b, was used as complex I inhibitor; potassium succinate ([…]) (Dia-M, Moscow, Russia), which is a substrate of complex II of the electron transport chain, made it possible to assess mitochondrial respiration mediated by succinate dehydrogenase; complex III (ubiquinol-cytochrome c-oxidoreductase) inhibitor—a blocker of cellular respiration antimycin A (Sigma Aldrich, Saint Louis, USA), as well as ascorbate/TMPD (0.5 μM) (Sigma Aldrich, Saint Louis, USA), allowed us to evaluate the cytochrome-c-oxidase mediated respiration of organelles.

[2] = system: RD (embryonic rhabdomyosarcoma); assay: MTT cell viability test, RD; type: cell-based, Human; settings: 72 h, read-out: IC50, RD
Description: (§3) Human cell cultures of tumor origin (A549 (lung carcinoma), HCT116 (colon adenocarcinoma), MCF7 (breast cancer), RD (embryonic rhabdomyosarcoma)), and the line of non-transformed cells HEK293 (embryonic kidney) provided by the Laboratory of Tumor Cell Genetics at the N.N. Blokhin Russian Cancer Research Institute, as well as by the Institute of Cytology of the Russian Academy of Sciences, were grown in DMEM (Gibco, Scotland, UK) and MEM (Gibco, Scotland, UK) containing fetal calf serum (10% by volume) (ThermoFisher Scientific, Paisley, UK), L-glutamine (2 mM) (Gibco, Scotland, UK), and penicillin-streptomycin (1% by volume) (PanEco, Moscow, Russia).
(§4) Cellular viability was determined by the MTT test. […] After 24 h of incubation, various concentrations of the test compounds dissolved in DMSO (≤1%) were added to the cell cultures, the solvent was added to the control wells in an equal volume, and then the cells were cultured under the same conditions for 72 h. After the incubation time, MTT (3-(4,5-dimethylthiazol-2-yl)-2,5-diphenyltetrazolium bromide, 5 mg/mL) was added to each well, and the plates were further incubated for 2 h (until a characteristic color appeared). Then, the formazan granules were dissolved in DMSO.
(§5) Using a plate analyzer (Cytation3, BioTech Instruments Inc., USA), the optical density was determined at λ = 530 nm.

MCF7 (breast cancer) = assay: MTT cell viability test, MCF7; type: cell-based, Human; settings: read-out: IC50, MCF7
Description: as §3, §4, §5

rat heart mitochondria = assay: Mitochondrial swelling; type: biochemical; settings: rat heart mitochondria 0.5 mg/mL, compounds at 100 μM, Ca2+ 25 μM
Description: as §1
Mitochondrial swelling was recorded by the light transmission of the rat heart mitochondrial suspension at λ = 540 nm using a Victor 3 plate analyzer (Perkin Elmer, Germany). The swelling rate was estimated as △A540/min and was calculated as the tangent of the angle of the steepest dependence curve part △A540 versus time.

[3] = system: HEK293 (embryonic kidney); assay: MTT cell viability test, non-transformed HEK293; type: cell-based, Human; settings: read-out: IC50, HEK293
Description: as §3, §4, §5

[4] = molecular target: T2, complex II of the electron transport chain (Rattus norvegicus, UniProt P21913+Q641Z9+Q6PCT8+Q920L2); assay: Respiratory chain complex II, OCR of isolated rat heart mitochondria (Seahorse); type: biochemical; settings: isolated rat heart mitochondria 10 μg/well, compounds at 30 μM
T2 construct: Rat heart mitochondria were isolated by differential centrifugation; from tissue; host or cells: rat heart mitochondria
Description: as §1, §2

A549 (lung carcinoma) = assay: MTT cell viability test, A549; type: cell-based, Human; settings: read-out: IC50, A549
Description: as §3, §4, §5

[5] = system: HCT116 (colon adenocarcinoma); assay: MTT cell viability test, HCT116; type: cell-based, Human; settings: read-out: IC50, HCT116
Description: as §3, §4, §5

[6] = system: HeLa cervical tumor cell line; assay: Glycolysis stress test (Seahorse, extracellular acidification rate); type: cell-based; settings: HeLa cells, test substances 30 μM
Description: The ability of the studied compounds to modulate anaerobic glycolysis was investigated using the Agilent Seahorse XF96e Analyzer (Seahorse Bioscience, Billerica, MA, USA) according to the level of hydrogen proton production in the samples on the HeLa cervical tumor cell line by the glycolysis stress test.
HeLa cells in the exponential growth phase were plated into a 96-well cell culture microplate Seahorse (the density of the cell culture was 3 × 10^4/well). After 24 h, the rate of medium extracellular acidification by cells treated with the test compounds was recorded in real time during the sequential injection of modulators: glucose (10 mM) (Dia-M, Moscow, Russia), oligomycin (1 μM) (Sigma Aldrich, Saint Louis, USA), 2-fluoro-2-deoxy-D-glucose (25 mM) (Sigma Aldrich, Saint Louis, USA). This allowed us to estimate the glycolysis intensity in cells by three main parameters of glycolytic function: glycolysis by adding saturating amounts of glucose to the system, glycolytic capacity by the introduction of oligomycin, and glycolytic reserve by using the inhibitor of this glycolysis 2-fluoro-2-deoxy-D-glucose.

[7] = system: lipid peroxidation (LPO) of rat brain homogenate; assay: Lipid peroxidation of rat brain homogenate (TBA test); type: biochemical; settings: rat brain homogenate 2 mg/mL, Fe2+ 500 μM, compound 100 μM
Description: To obtain a brain homogenate, decapitation of rats anesthetized in advance with CO2 was performed using a guillotine. The brain was homogenized in a buffer containing KCl (120 mM) and HEPES (20 mM) (Gibco, Scotland, UK), pH = 7.4, at 4 °C and centrifuged at 1500 rpm to obtain a supernatant.
To study the effect of compounds on the process of lipid peroxidation (LPO) of rat brain homogenate, we used a modified version of the TBA test, which is based on the reaction of 2-thiobarbituric acid with the final LPO product—malonic dialdehyde (MDA). According to the experimental scheme, the well of the plate contained the studied compounds (100 μM), rat brain homogenate (2 mg/mL), as well as 500 μM ferrous iron ions (FeSO4 × […]). After 30 min of incubation at 37 °C, TBA reagent was added to all samples, incubated for 90 min at 90 °C, and centrifuged at 6000 rpm for 15 min. The optical density of the selected supernatant was measured on a Victor 3 plate analyzer (Perkin Elmer, Germany […]) at λ = 540 nm.

T1 sequence (P00406 whole entry, other chains not shown): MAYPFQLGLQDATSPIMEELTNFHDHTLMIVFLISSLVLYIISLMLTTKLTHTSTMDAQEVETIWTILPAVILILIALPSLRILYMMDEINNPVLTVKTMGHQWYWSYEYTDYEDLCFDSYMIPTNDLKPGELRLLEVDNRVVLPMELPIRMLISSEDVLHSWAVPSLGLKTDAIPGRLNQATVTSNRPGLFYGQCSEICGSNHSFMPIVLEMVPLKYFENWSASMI
T1 sequence (P05505 whole entry, other chains not shown): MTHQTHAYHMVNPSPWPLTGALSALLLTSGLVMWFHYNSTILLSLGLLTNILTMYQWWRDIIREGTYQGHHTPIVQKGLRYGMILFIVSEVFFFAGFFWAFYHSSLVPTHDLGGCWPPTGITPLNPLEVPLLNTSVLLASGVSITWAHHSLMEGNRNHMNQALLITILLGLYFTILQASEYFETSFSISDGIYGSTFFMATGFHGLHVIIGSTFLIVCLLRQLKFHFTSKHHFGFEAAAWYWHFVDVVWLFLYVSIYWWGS
T2 sequence (Q920L2 35-656): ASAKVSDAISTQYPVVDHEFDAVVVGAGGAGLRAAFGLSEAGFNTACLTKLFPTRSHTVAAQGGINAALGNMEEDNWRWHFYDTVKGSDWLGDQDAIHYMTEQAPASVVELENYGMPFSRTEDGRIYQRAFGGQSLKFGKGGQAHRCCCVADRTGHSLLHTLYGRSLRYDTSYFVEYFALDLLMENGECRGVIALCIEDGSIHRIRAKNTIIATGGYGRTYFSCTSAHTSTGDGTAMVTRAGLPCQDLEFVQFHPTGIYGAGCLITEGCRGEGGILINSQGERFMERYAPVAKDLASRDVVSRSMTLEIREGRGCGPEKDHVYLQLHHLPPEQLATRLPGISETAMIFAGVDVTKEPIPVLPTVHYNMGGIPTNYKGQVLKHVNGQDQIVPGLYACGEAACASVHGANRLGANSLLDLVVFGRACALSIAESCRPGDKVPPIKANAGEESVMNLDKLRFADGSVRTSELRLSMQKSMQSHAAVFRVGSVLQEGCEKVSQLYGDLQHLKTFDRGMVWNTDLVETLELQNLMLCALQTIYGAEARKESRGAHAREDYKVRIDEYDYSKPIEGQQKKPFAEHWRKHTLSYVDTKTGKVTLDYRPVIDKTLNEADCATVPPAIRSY
T2 sequence (P21913 31-282): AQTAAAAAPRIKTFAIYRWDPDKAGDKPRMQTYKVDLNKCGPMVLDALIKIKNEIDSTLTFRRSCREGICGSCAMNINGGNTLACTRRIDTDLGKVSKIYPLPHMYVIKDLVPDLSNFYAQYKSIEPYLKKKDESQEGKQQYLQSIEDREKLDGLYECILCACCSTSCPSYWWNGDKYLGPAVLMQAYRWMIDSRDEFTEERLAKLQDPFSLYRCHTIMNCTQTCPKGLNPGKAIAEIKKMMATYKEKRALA
T2 sequence (Q641Z9 30-169 limits assumed): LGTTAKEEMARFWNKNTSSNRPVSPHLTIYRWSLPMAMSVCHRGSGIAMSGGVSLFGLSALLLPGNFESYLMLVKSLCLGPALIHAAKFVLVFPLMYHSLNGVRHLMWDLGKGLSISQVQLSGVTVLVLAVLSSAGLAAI
T2 sequence (Q6PCT8 57-159): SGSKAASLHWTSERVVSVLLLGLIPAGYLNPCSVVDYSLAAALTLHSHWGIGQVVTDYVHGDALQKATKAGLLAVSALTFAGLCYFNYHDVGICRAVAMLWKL

| Structure (SMILES) | melting point | Work of Respiratory Chain Complexes, % Decrease in OCR of Control, IV [1] | IC50 ([2]; Homo sapiens) | IC50 (MCF7 (breast cancer); Homo sapiens, MCF7, 72 h) | Mitochondrial Swelling, % of Ca2+-Induced Swelling (rat heart mitochondria) | IC50 ([3]; Homo sapiens, HEK293, 72 h) | Work of Respiratory Chain Complexes, % Decrease in OCR of Control, II [4] | IC50 (A549 (lung carcinoma); Homo sapiens, A549, 72 h) | IC50 ([5]; Homo sapiens, HCT-116, 72 h) | IC50 ([2]; MTT) | IC50 (MCF7 (breast cancer); MTT, 72 h) | IC50 ([3]; MTT, 72 h, non-transformed cells) | IC50 (A549 (lung carcinoma); MTT, 72 h) | Effect on glycolytic function (extracellular acidification rate) [6] | IC50 ([5]; MTT, 72 h) | % of MDA relative to control [7] | Work of Respiratory Chain Complexes, % Decrease in OCR of Control, II ([4]; listed as daunorubicin) |
| --- | --- | --- | --- | --- | --- | --- | --- | --- | --- | --- | --- | --- | --- | --- | --- | --- | --- |
| COc1cccc2c1C(=O)c1c(O)c3c(c(O)c1C2=O)C[C@@](O)(C(=O)CO)C[C@@H]3O[C@H]1C[C@H](NC[C@H]2C(=O)O[C@@H]3CC4=CCC[C@H](C)[C@@]4(C)[C@@H](O)[C@@H]32)[C@H](O)[C@H](C)O1 [Compound 7a, (8S,10S)-6,8,11-Trihydroxy-10-(((2R,4S,5S,6S)-5-hydroxy-4-((((3S,3aS,4S,4aR,5S,9aR)-4-hydroxy-4a,5-dimethyl-2-oxo-2,3,3a,4,4a,5,6,7,9,9a-decahydronaphtho[2,3-b]furan-3-yl)methyl)amino)-6-methyltetrahydro-2H-pyran-2-yl)oxy)-8-(2-hydroxyacetyl)-1-methoxy-7,8,9,10-tetrahydrotetracene-5,12-dione] | 170 to 175 °C | 38.16 ± 0.84% | 4220 ± 100 nM | 6030 ± 110 nM | — (“—” indicates activity absence for compounds (≤10%) in a particular test) | 10500 ± 880 nM | 33.21 ± 3.84% | 5430 ± 160 nM | 920 nM |  |  |  |  |  |  |  |  |
| COc1cccc2c1C(=O)c1c(O)c3c(c(O)c1C2=O)C[C@@](O)(C(C)=O)C[C@@H]3O[C@H]1C[C@H](NC[C@H]2C(=O)O[C@@H]3C[C@@]4(C)CCCC(C)=C4C[C@@H]32)[C@H](O)[C@H](C)O1 [Compound 3b] |  | — (“—” indicates activity absence for compounds (≤10%) in a particular test) |  |  | 26.45 ± 7.14% |  |  |  |  | 590 ± 50 nM | 1240 ± 230 nM | 6370 ± 240 nM | 1420 ± 50 nM | most pronounced ability to reduce the acidification rate of the medium by cells | 1010 ± 10 nM |  |  |
| COc1cccc2c1C(=O)c1c(O)c3c(c(O)c1C2=O)C[C@@](O)(C(C)=O)C[C@@H]3O[C@H]1C[C@H](N)[C@H](O)[C@H](C)O1 [b, daunorubicin, reference compound] |  | — (“—” indicates activity absence for compounds (≤10%) in a particular test) | 630 ± 30 nM | 840 ± 170 nM | 40.98 ± 3.86% | 12300 ± 1170 nM | 72.12 ± 0.96% | 330 ± 10 nM | 120 nM |  |  |  |  |  |  | 226.05 ± 6.60% | more than 70% |
